From PubChem BioAssay (NCI)
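Test compounds were applied to cells in 96-well plates for 48 hours at 5 doses. TGI marks complete inhibition of growth.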

Assays:
Experiment in all cases: NCI tumour cell line growth inhibition, 48 h
M14 melanoma = tested on: M14 melanoma
MDA-MB-231 breast = tested on: MDA-MB-231 breast
SF-295 CNS = tested on: SF-295 CNS
K-562 leukemia = tested on: K-562 leukemia
OVCAR-3 ovarian = tested on: OVCAR-3 ovarian
HT29 colon = tested on: HT29 colon
HL-60(TB) leukemia = tested on: HL-60(TB) leukemia
SNB-19 CNS = tested on: SNB-19 CNS
SK-MEL-28 melanoma = tested on: SK-MEL-28 melanoma
NCI-H226 lung = tested on: NCI-H226 lung
SF-268 CNS = tested on: SF-268 CNS
KM12 colon = tested on: KM12 colon
IGROV1 ovarian = tested on: IGROV1 ovarian
UO-31 renal = tested on: UO-31 renal
MCF7 breast = tested on: MCF7 breast
PC-3 prostate = tested on: PC-3 prostate
OVCAR-5 ovarian = tested on: OVCAR-5 ovarian
CAKI-1 renal = tested on: CAKI-1 renal
A498 renal = tested on: A498 renal
SK-OV-3 ovarian = tested on: SK-OV-3 ovarian
MALME-3M melanoma = tested on: MALME-3M melanoma
UACC-62 melanoma = tested on: UACC-62 melanoma
HOP-92 NSCLC = tested on: HOP-92 NSCLC
COLO 205 colon = tested on: COLO 205 colon
MOLT-4 leukemia = tested on: MOLT-4 leukemia
ACHN renal = tested on: ACHN renal
SK-MEL-2 melanoma = tested on: SK-MEL-2 melanoma
SK-MEL-5 melanoma = tested on: SK-MEL-5 melanoma
HCC-2998 colon = tested on: HCC-2998 colon
HCT-116 colon = tested on: HCT-116 colon
T-47D breast = tested on: T-47D breast
NCI-H23 lung = tested on: NCI-H23 lung
U251 CNS = tested on: U251 CNS
HCT-15 colon = tested on: HCT-15 colon
SF-539 CNS = tested on: SF-539 CNS
RXF 393 renal = tested on: RXF 393 renal
A549 NSCLC = tested on: A549 NSCLC
UACC-257 melanoma = tested on: UACC-257 melanoma
EKVX NSCLC = tested on: EKVX NSCLC
SN12C renal = tested on: SN12C renal
OVCAR-4 ovarian = tested on: OVCAR-4 ovarian
LOX IMVI melanoma = tested on: LOX IMVI melanoma
RPMI-8226 leukemia = tested on: RPMI-8226 leukemia
MDA-N = tested on: MDA-N
NCI-H460 lung = tested on: NCI-H460 lung
NCI-H522 lung = tested on: NCI-H522 lung
CCRF-CEM leukemia = tested on: CCRF-CEM leukemia
SW-620 colon = tested on: SW-620 colon
MDA-MB-435 = tested on: MDA-MB-435
SR leukemia = tested on: SR leukemia
HS 578T breast = tested on: HS 578T breast
NCI/ADR-RES ovarian = tested on: NCI/ADR-RES ovarian
786-0 renal = tested on: 786-0 renal
TK-10 renal = tested on: TK-10 renal
DU-145 prostate = tested on: DU-145 prostate
OVCAR-8 ovarian = tested on: OVCAR-8 ovarian
HOP-62 NSCLC = tested on: HOP-62 NSCLC
SNB-75 CNS = tested on: SNB-75 CNS

Measured: TGI

COC(=O)[C@]12CC[C@H]3CN(C(=O)OCc4ccccc4)[C@H]([C@H]31)[C@H](c1ccco1)N2
39.1 µM: NCI-H522 lung
36.3 µM: A498 renal
84.4 µM: HL-60(TB) leukemia
51.7 µM: NCI/ADR-RES ovarian
42.2 µM: NCI-H23 lung
61.8 µM: MDA-MB-435
31.2 µM: OVCAR-4 ovarian
40.9 µM: COLO 205 colon
80.2 µM: MALME-3M melanoma
37.3 µM: SK-MEL-5 melanoma
64.5 µM: MOLT-4 leukemia
81.4 µM: UACC-257 melanoma
84.5 µM: HCT-15 colon
not listed: SNB-75 CNS
> 100 µM: all other assays above

O=C(NCCOC(=O)OCCNC(=O)NC1CCCCC1)NC1CCCCC1
79 µM: HOP-92 NSCLC
> 100 µM: all other assays above
